SMILES strings stand for the structures.

The values that follow come from patent US12133908B2, “Personal care composition comprising taurine, arginine, glycine” (Colgate-Palmolive Company, priority 2015, dated 2024).

Assay [1] has as its system 3D EpiDerm skin models (SIT 200 skin irritation model). Kind of assay: in vitro skin irritation assay, IL-1α release by ELISA. It counts as cell-based. The method, then:
To measure skin irritation, in vitro experiments are conducted using 3D EpiDerm skin models (SIT 200 skin irritation model, MatTek Corporation, Ashland, MA 01721). The irritation assay measures IL-la protein released by the cells to the media to evaluate the level of skin irritation and inflammation. In vitro skin samples are treated topically with 30 μl of test compounds (taurine (1% by weight) or taurine-L-arginine-glycine complex (1% by weight) of 2:1:1 (a mixture of 0.5% taurine, 0.25% L-arginine and 0.25% glycine, by weight) for 1 hour in tissue culture incubator. To induce irritation, cells are co-treated with 0.05% SDS and the test compounds. Following the incubation, skin samples are washed with PBS and placed in a culture medium and incubated for 24 hours. Cell culture media are collected for IL-la release assay. IL-la release is analyzed by ELISA assay kit (R&D Systems, Minneapolis, MN 55413). The greater IL-la release, the greater the irritation potential. […] Samples 1-6 are evaluated in the in vitro irritation assay as described above in Example 2.

The test system of assay [2] is HaCaT cells. Kind of assay: in vitro migration assay (scratch gap closure) for barrier repair. In kind it is cell-based, human. As to conditions: 24 hours incubation, taurine 0.0005% alone or with L-arginine 0.0001% and glycine 0.0001% (Example 1).
Description: To determine barrier repair function of taurine combined with L-arginine and glycine, in vitro experiments are conducted using HaCaT cells. HaCaT cells are spontaneously transformed aneuploid immortal keratinocyte cell line from adult human skin and are grown until 100% confluent. After that, each well is scratched with 1000 μl tip to create the gap and washed with 1 ml of PBS twice to eliminate dead floating cells. Following that, cells are treated with 1 ml of culture media for control (untreated), Taurine (0.0005% by weight), and amino acid complex of taurine (0.0005% by weight) combined with L-arginine (0.0001% by weight) and glycine (0.0001% by weight). Then, initial measurements of gap distance are taken using microscope (OLYMPUS IX71). Next, the treated cells are incubated for 24 hours and measurements are taken again.
The migration assay measures cell migration in order to evaluate the barrier repair.

In the case of `CCCCCCCCCCCCOS(=O)(=O)[O-].[Na+]` [SDS, sodium dodecyl sulfate], the “IL-1α release (% of control)” value in assay [1] (0.05% SDS alone (Example 2)) is reported as 120 % of control; in assay [1] (0.05% SDS alone (Example 4)), 140 % of control. In addition, in assay [1] (0.05% SDS alone vs untreated (Example 2)), the “increase of IL-1α release” value was determined as 20%.

`NCCS(=O)(=O)O` [taurine, 2-aminoethanesulfonic acid]: the “IL-1α release (% of control)” value in assay [1] (1% test compound co-treated with 0.05% SDS (Example 4)) is 114 % of control; in assay [1] (30 μl of 1% test compound co-treated with 0.05% SDS for 1 hour, then 24 hours in medium (Example 2)) it was 70 % of control. The “Cell migration in 24hr (% of control)” value in assay [2] is given as 66 % of control.
